Assays:
[1] = test system: soybean cyst nematode J2s; assay: Soybean cyst nematode J2 treatment in Petri dish (cuticle covering, molting, death); assay type: in vivo; settings: for MEAN SCN Covered Cuticle / MEAN SCN Dead J2s: ten freshly hatched J2s per dish, three replicates
Excerpt: Different developmental stages of soybean cyst nematode were targeted for treatment in soil. Soybean cyst nematode has an egg stage, four juvenile stages (samples J1 to J4), adult male and female stages. From J1 to adult development, during each development stage, the nematode undergoes a molt, that is, a shedding of the outside cuticle and forming a new cuticle.
Ten freshly hatched J2s were removed from pure culture and added to three different concentrations (0.5 weight %, […], and 0.12 weight % of Composition solution in a […] Petri dish containing DI water. Composition is (CH3O)3Si(CH2)3N^+ C18H37(CH3)2 Cl^−.
Observations were made over time under an inverted microscope and compound microscope and for both soybean cyst nematode in Composition and also in just DI water which were replicated three times.

[2] = test system: soybean cyst nematode J2s; assay: as above; assay type: in vivo; settings: 0.25% Composition in DI water; ten freshly hatched J2s per dish, three replicates

Q: What does the source list for CCCCCCCCCCCCCCCCCC[N+](C)(C)CCC[Si](OC)(OC)OC.[Cl-] [Composition, 3-(trimethoxysilyl)-propyldimethyloctadecyl ammonium chloride]?
A: MEAN SCN Covered Cuticle ([1]; 0.12% Composition in DI water): 5.3; MEAN SCN Dead J2s ([1]; 0.12% Composition in DI water): 6.66; MEAN SCN Covered Cuticle ([1]; 0.5% Composition in DI water): 5.16; MEAN SCN Dead J2s ([1]; 0.5% Composition in DI water): 8.00; Microscopic observation of J2s after one day ([1]; all concentrations, after one day): accumulates on the cuticle of J2s; Microscopic observation of J2s on the second day ([1]; all concentrations, second day): J2s shed the cuticle; Statistical effect on soybean cyst nematode J2s (covered cuticles and dead nematodes versus treatment) ([1]; all tested concentrations): significantly affects the soybean cyst nematode J2s; Overall effect on the nematode in vitro ([1]; in vitro): cuticle disruption and therefore accelerated molting of the nematode in vitro and ultimate death of the nematodes; MEAN SCN Covered Cuticle [2]: 5.16; MEAN SCN Dead J2s [2]: 7.66
